{"source": "patent US12453709B2", "about": "“Compositions and methods for treating autism” (priority 2013, dated 2025)", "system": "male patients diagnosed with autism", "experiment": "Study HT 02-121: Aberrant Behavior Checklist-Community (ABC-C)", "format": "in vivo, human", "settings": "for ABC-C Hyperactivity and Noncompliance Mean Change from Baseline / ABC-C Hyperactivity and Noncompliance Treatment effect versus placebo / ABC-C Hyperactivity and Noncompliance change, median / ABC-C Inappropriate Speech Mean Change from Baseline / ABC-C Inappropriate Speech Treatment effect versus placebo / ABC-C Inappropriate Speech change, median / ABC-C Irritability and Agitation Mean Change from Baseline / ABC-C Irritability and Agitation Treatment effect versus placebo / ABC-C Irritability and Agitation change, median / ABC-C Lethargy and Social Withdrawal Mean Change from Baseline / ABC-C Lethargy and Social Withdrawal Treatment effect versus placebo / ABC-C Lethargy and Social Withdrawal change, median / ABC-C Stereotypic Behavior Mean Change from Baseline / ABC-C Stereotypic Behavior Treatment effect versus placebo / ABC-C Stereotypic Behavior change, median: Week 4/LOCF", "protocol": "This clinical study was a randomized double-blind, placebo-controlled two-cohort, 4-week dose-escalation study that incorporated two open-label treatment groups to assess the safety and efficacy of L1-79 100 mg and 200 mg TID in male patients between the ages of […] years of age diagnosed with autism. The first cohort of 20 patients was comprised of three groups of patients: The first group of five patients received open-label L1-79 100 mg TID and underwent PK and EKG assessments. The remaining two groups in this cohort consisted of 15 patients randomized on a 2:1 basis to receive L1-79 100 mg TID or placebo. The PK and safety data from the open-label L1-79 100 mg TID group was submitted to FDA for review and acceptance before the second cohort was enrolled. The second cohort was procedurally identical to the first. The second cohort of 20 patients was comprised of the same three groups of patients but a dose of 200 mg TID was used instead of 100 mg TID. The key inclusion criteria were as follows: (1) males between 13 and 21 years of age, (2) DSM-5 compliant diagnosis of autism spectrum disorder, confirmed by the Autistic Diagnosis Interview Review (ADIR), and by an ADOS-2 score consistent with a diagnosis of autism, (3) must have been stable on no more than one concomitant medication and no planned changes in psychosocial interventions during the study.\nThe primary efficacy endpoint was the determination of the clinical improvement by the investigator as documented by the Clinical Global Impression (CGI) rating scales. Additional efficacy endpoints included: (1) changes from baseline in the Socialization and Communication Domains of the Vineland Adaptive Behavior Scales, Second Edition (VABS II) parent/caregiver rating form, (2) changes from baseline in the ADOS-2 Total Score and subscores, (3) changes in the Social Responsiveness Scale, Second Edition (SRS-2) Total Score and subscales, (4) changes in the ABC-C domains, (5) changes in the Repetitive Behavior Scale-Revised (RBS-R) Total Score and subscales. Given the exploratory design of this study only descriptive statistics were planned.\nIn the preliminary study, all forms were completed at the study site in the presence of the investigator. In Cohort 1 of the present study, the VABS-II, SRS-2, ABC-C and RBS-R were filled out at home by the patient/patient's families prior to treatment visits and returned at treatment visits in order to expedite the execution of the study. […]", "data": [{"molecule": "CC(N)(Cc1ccc(O)cc1)C(=O)O", "note": "(racemic) [L1-79, α-methyl-DL-tyrosine]", "values": [{"measurement": "ABC-C Lethargy and Social Withdrawal / Inappropriate Speech: responder analyses vs placebo", "setting": "200 mg group", "value": "greater tendency for patients to respond with improvement or no worsening"}, {"measurement": "ABC-C Hyperactivity and Noncompliance Mean Change from Baseline", "setting": "DB 100 mg TID", "value": 0.4}, {"measurement": "ABC-C Hyperactivity and Noncompliance Treatment effect versus placebo", "setting": "DB 100 mg TID", "value": 4.9}, {"measurement": "ABC-C Hyperactivity and Noncompliance change, median", "setting": "DB 100 mg TID", "value": "0, 0, 3"}, {"measurement": "ABC-C Inappropriate Speech Mean Change from Baseline", "setting": "DB 100 mg TID", "value": 0.0}, {"measurement": "ABC-C Inappropriate Speech Treatment effect versus placebo", "setting": "DB 100 mg TID", "value": 1.6}, {"measurement": "ABC-C Inappropriate Speech change, median", "setting": "DB 100 mg TID", "value": "−2, 0, 1"}, {"measurement": "ABC-C Irritability and Agitation Mean Change from Baseline", "setting": "DB 100 mg TID", "value": "−0.9"}, {"measurement": "ABC-C Irritability and Agitation Treatment effect versus placebo", "setting": "DB 100 mg TID", "value": 2.5}, {"measurement": "ABC-C Irritability and Agitation change, median", "setting": "DB 100 mg TID", "value": "−2, −1, 0"}, {"measurement": "ABC-C Lethargy and Social Withdrawal Mean Change from Baseline", "setting": "DB 100 mg TID", "value": "−1.6"}, {"measurement": "ABC-C Lethargy and Social Withdrawal Treatment effect versus placebo", "setting": "DB 100 mg TID", "value": 3.9}, {"measurement": "ABC-C Lethargy and Social Withdrawal change, median", "setting": "DB 100 mg TID", "value": "−2, −1, 1"}, {"measurement": "ABC-C Stereotypic Behavior Mean Change from Baseline", "setting": "DB 100 mg TID", "value": 1.9}, {"measurement": "ABC-C Stereotypic Behavior Treatment effect versus placebo", "setting": "DB 100 mg TID", "value": 2.5}, {"measurement": "ABC-C Stereotypic Behavior change, median", "setting": "DB 100 mg TID", "value": "0, 0, 4"}, {"measurement": "ABC-C Hyperactivity and Noncompliance Mean Change from Baseline", "setting": "DB 200 mg TID", "value": "−4.0"}, {"measurement": "ABC-C Hyperactivity and Noncompliance Treatment effect versus placebo", "setting": "DB 200 mg TID", "value": 0.5}, {"measurement": "ABC-C Hyperactivity and Noncompliance change, median", "setting": "DB 200 mg TID", "value": "−7, −1, 0"}, {"measurement": "ABC-C Inappropriate Speech Mean Change from Baseline", "setting": "DB 200 mg TID", "value": "−2.0"}, {"measurement": "ABC-C Inappropriate Speech Treatment effect versus placebo", "setting": "DB 200 mg TID", "value": "−0.4"}, {"measurement": "ABC-C Inappropriate Speech change, median", "setting": "DB 200 mg TID", "value": "−4, −1, 0"}, {"measurement": "ABC-C Irritability and Agitation Mean Change from Baseline", "setting": "DB 200 mg TID", "value": "−2.2"}, {"measurement": "ABC-C Irritability and Agitation Treatment effect versus placebo", "setting": "DB 200 mg TID", "value": 1.2}, {"measurement": "ABC-C Irritability and Agitation change, median", "setting": "DB 200 mg TID", "value": "−7, −2, 0"}, {"measurement": "ABC-C Lethargy and Social Withdrawal Mean Change from Baseline", "setting": "DB 200 mg TID", "value": "−4.5"}, {"measurement": "ABC-C Lethargy and Social Withdrawal Treatment effect versus placebo", "setting": "DB 200 mg TID", "value": 1.0}, {"measurement": "ABC-C Lethargy and Social Withdrawal change, median", "setting": "DB 200 mg TID", "value": "−9, −2, 0"}, {"measurement": "ABC-C Stereotypic Behavior Mean Change from Baseline", "setting": "DB 200 mg TID", "value": "−1.7"}, {"measurement": "ABC-C Stereotypic Behavior Treatment effect versus placebo", "setting": "DB 200 mg TID", "value": "−1.1"}, {"measurement": "ABC-C Stereotypic Behavior change, median", "setting": "DB 200 mg TID", "value": "−3, −1, 0"}, {"measurement": "patients with stability or improvement of ABC-C social and speech domains", "setting": "L1-79 200 mg", "value": "90 to 100", "unit": "%"}]}]}
